Source: US20040197222A1 (priority 2002, published 2004)
Entries after “also recorded” stand apart in the source; their conditions may differ. Where two headings read alike, the source gives them in different places.

Experiments:
[1] = system: 10^5 of B. stearothermophilus ATCC # 7953; test: Trailer field fumigation, combined-species spore strips incubated for B. stearothermophilus; type: cell-based, Bacillus stearothermophilus
[2] = system: 10^6 spores of B. subtilis var. niger ATCC # 9372; type: cell-based, Bacillus subtilis var. niger; details: trailer, 20 sites, 28 °C to 38 °C, 250 to 350 oz/mcf, 48 hours
[3] = system: Bacillus anthracis ANR-1 spores; type: cell-based; details: 37 °C; for reduction in B. anthracis spores: all concentrations tested (80 to 320 mg/L)
[4] = system: B. subtilis var. niger strips containing 10^8 spores; type: cell-based, Bacillus subtilis var. niger; details: 28 °C to 38 °C, 250 to 350 oz/mcf, 48 hours
[5] = system: B. stearothermophilus spores (10^5, ATCC #7953); type: cell-based, Bacillus stearothermophilus
[6] = system: B. atrophaeus spores; type: cell-based
[7] = system: B. subtilis var. niger spores (10^6, ATCC #9372); type: cell-based, Bacillus subtilis var. niger; details: for germination of B. subtilis spores: exposure as long as 164 hours
[8] = system: G. stearothermophilus spores; type: cell-based

## CBr [methyl bromide]
[1]
  spores on all 10^5 B. stearothermophilus strips, field fumigation: successfully disabled; also recorded: killed
[2]
  spores on all 10^6 B. subtilis strips, field fumigation: successfully disabled
[2]; listed as MB
  spores on all 10^6 B. subtilis strips, field fumigation: killed
[3]; 48 hours
  lowest total concentration at which treatment is effective (B. anthracis): 80 mg/L
  reduction in B. anthracis spores: ≥ 7 log
[3]; 48 hours, listed as MB
  reduction in B. anthracis spores: ≥ 6 log
[3]; chamber 6, 48 hours
  B. anthracis spores in chamber 6: completely killed
[3]; out of 14 million, 80 to 320 mg/L, 48 hours
  B. anthracis spores remaining (detection level): < 50 spores
[4]
  germination of spores in strips with concentrations of 10^8, field fumigation: successfully disabled
[5]
  Spore Germination B. stearo.: no and yes
  germination of Bacillus stearothermophilus spores: prevented from germinating
[6]
  Recovery of viable spores, commercial spore strips B. atrophaeus: no growth; also recorded: growth
  killing of B. atrophaeus spores on a spore strip: insufficient to kill all B. atrophaeus spores
[7]; 19 °C, MeBr 48 mg/l (theoretical), 104 hours, 5,000 mg-hr/l
  Spore Germination B. subtilis: yes
[7]; 19 °C, MeBr 48 mg/l (theoretical), 146 hours, 7,000 mg-hr/l
  Spore Germination B. subtilis: yes
[7]; 19 °C, MeBr 80 mg/l (theoretical), 112 hours, 9,000 mg-hr/l
  Spore Germination B. subtilis: yes
[7]; 19 °C, MeBr 80 mg/l (theoretical), 134 hours, 11,000 mg-hr/l
  Spore Germination B. subtilis: yes
[7]; 19 °C, MeBr 80 mg/l (theoretical), 164 hours, 13,120 mg-hr/l
  Spore Germination B. subtilis: yes
[7]; 19 °C, MeBr 160 mg/l (theoretical), 164 hours, 26,240 mg-hr/l
  Spore Germination B. subtilis: yes
[7]; 19 °C, methyl bromide 48 to 80 mg/l (theoretical value)
  germination of B. subtilis spores: still germinated
[7]; 19 °C, methyl bromide as high as 320 mg/l (theoretical value)
  germination of B. subtilis spores: still able to germinate
[7]; 27 °C, methyl bromide 320 mg/l (theoretical value), 72 hours
  B. subtilis spore germination: successfully disabled
[7]; 32 °C, methyl bromide 160 mg/l (theoretical value), 72 hours
  germination of the B. subtilis spores: not sufficient to stop germination; also recorded: not sufficient to prevent germination
[7]; 32 °C, methyl bromide 240 mg/l (theoretical value), 38 hours
  B. subtilis spore germination: successfully disabled
[7]; Example 1, 19 °C, MeBr 48 mg/l (theoretical), 63 hours, 3,000 mg-hr/l
  Spore Germination B. subtilis: yes
[7]; Example 2, 19 °C, MeBr 48 mg/l (theoretical), 63 hours, 3,000 mg-hr/l
  Spore Germination B. subtilis: yes
[7]; Example 2, 20 °C, MeBr 320 mg/l (theoretical), 72 hours, 23,040 mg-hr/l
  Spore Germination B. subtilis: yes
[7]; Example 2, 20 °C, MeBr 320 mg/l (theoretical), 96 hours, 30,720 mg-hr/l
  Spore Germination B. subtilis: yes
[7]; Example 2, 27 °C, MeBr 240 mg/l (theoretical), 48 hours, 11,520 mg-hr/l
  Spore Germination B. subtilis: yes
[7]; Example 2, 27 °C, MeBr 320 mg/l (theoretical), 72 hours, 23,040 mg-hr/l
  Spore Germination B. subtilis: no
[7]; Example 2, 27 °C, MeBr 320 mg/l (theoretical), 96 hours, 30,720 mg-hr/l
  Spore Germination B. subtilis: no
[7]; Example 2, 27 °C, MeBr 320 mg/l (theoretical), 96 hours, 30,720 mg-hr/l, chamber contained office commodities
  Spore Germination B. subtilis: no^4
[7]; Example 3, 19 °C, MeBr 48 mg/l (theoretical), 63 hours, 3,000 mg-hr/l
  Spore Germination B. subtilis: no
[7]; Example 3, 27 °C, MeBr 320 mg/l (theoretical), 62 hours, 19,776 mg-hr/l
  Spore Germination B. subtilis: no
[7]; Example 3, 32 °C, MeBr 160 mg/l (theoretical), 72 hours, 11,520 mg-hr/l
  Spore Germination B. subtilis: yes
[7]; Example 3, 32 °C, MeBr 240 mg/l (theoretical), 48 hours, 11,520 mg-hr/l
  Spore Germination B. subtilis: no
[7]; Example 3, 32 °C, MeBr 240 mg/l (theoretical), 72 hours, 17,280 mg-hr/l
  Spore Germination B. subtilis: no
[7]; Example 3, 32 °C, MeBr 320 mg/l (theoretical), 38 hours, 12,160 mg-hr/l
  Spore Germination B. subtilis: no
[7]; Example 3, 32 °C, MeBr 320 mg/l (theoretical), 47 hours, 15,104 mg-hr/l
  Spore Germination B. subtilis: no
[8]
  Recovery of viable spores, commercial spore strips G. stearothermophilus A: no growth
  Recovery of viable spores, commercial spore strips G. stearothermophilus B: no growth; also recorded: growth
  killing of G. stearothermophilus spores on a spore strip: capable of killing all G. stearothermophilus spores
